Where a name gives a salt, the structure may show the parent alone.
Assays:
[1] = Dynamic surface tension of aqueous solutions, maximum bubble pressure method; type: physicochemical; conditions: for limiting γ (0.1 b/s) / limiting γ (1 b/s) / limiting γ (6 b/s) / limiting γ (20 b/s): lowest surface tension in water; for pC20: negative logarithm of molar concentration giving 52.1 dyne/cm at 0.1 b/s; for decrease in the limiting surface tension: in comparison to dipentyl-L-tartrate
Excerpt: where R1 and R2 are independently a C4 to C6 alkyl group, but preferably are the same; provided that when the water-based composition is an ink, R1 and R2 are independently a C5 or C6 alkyl group. […] The maximum-bubble-pressure method of measuring surface tension is described in Langmuir 1986, 2, 428-432, which is incorporated by reference.
In the following Examples dynamic surface tension data were obtained for aqueous solutions of various compounds using the maximum bubble pressure method at bubble rates from 0.1 bubbles/second (b/s) to 20 b/s. […] In practical terms, high bubble rates correspond to high printing speeds in lithographic printing, high spray or roller velocities in coating applications, and rapid application rates for agricultural products.
Dynamic surface tension data were obtained for a 0.1 wt % aqueous solution of the 9.5 mole ethoxylate of nonylphenol using the maximum bubble pressure method at bubble rates from 0.1 bubbles/second (b/s) to 20 b/s.
(§1) Solutions of the materials of Examples 1-12 in distilled water were prepared. […] The pC20 value is defined as the negative logarithm of the molar concentration of surfactant required to decrease the surface tension of an aqueous solution to 52.1 dyne/cm, that is, 20 dyne/cm below that of pure water when the measurement is performed at 0.1 b/s. This value is a measure of the efficiency of a surfactant. […] In addition, the relative efficiency of surfactants can be obtained by comparing surface tension reduction of solutions containing the same amount of different surfactants. Such data is given for 0.1 wt % solutions of the tartrates at 1.0 and 6.0 bubbles/second (b/s). The solubility limit was determined by intersection of the linear portion of a surface tension/In concentration curve with the limiting surface tension as is described in many textbooks. The limiting surface tensions at 0.1, 1, 6 and 20 b/s represent the lowest surface tensions in water which can be achieved at the given surface creation rates for a given surfactant regardless of the amount of surfactant used and is used to evaluate the effectiveness of a surfactant. These values give information about the relative ability to a surfactant to reduce surface defects under near-equilibrium conditions (0.1 b/s) through very dynamic conditions (20 b/s). Lower surface tensions would allow the elimination of defects upon application of a formulation onto lower energy surfaces.

[2] = Foam test based upon ASTM D 1173-53; type: physicochemical; conditions: 0.1 wt % solution
Excerpt: The foaming properties of a 0.1 wt % solution of the comparative example (nonylphenol 9.5 mole ethoxylate) and various dialkyltartrates (diisopropyl-(D)-tartrate, dibutyl-L-tartrate. diisobutyl-DL-tartrate, di-sec-butyl-DL-tartrate, dipentyl-DL-tartrate, diisoamyl-DL-tartrate, di-(2-methyl-butyl)-DL-tartrate, dineopentyl-DL-tartrate, dihexyl-DL-tartrate, di-(4-methyl-2-pentyl)-DL-tartrate, dibenzyl-DL-tartrate and di-(2-ethyl-hexyl)-DL-tartrate) were examined using a procedure based upon ASTM D 1173-53. In this test, a 0.1 wt % solution of the surfactant is added from an elevated foam pipette to a foam receiver containing the same solution. The foam height is measured at the completion of the addition (“Initial Foam Height”) and the time required for the foam to dissipate at the air-liquid interface (“Time to 0 Foam”) is recorded. This test provides a comparison between the foaming characteristics of various surfactants. In general, in coatings, inks, adhesives and agricultural formulations, foam is undesirable because is complicates handling and can lead to coating and print defects, and to inefficient application of agricultural materials.

[3] = Solubility limit in water from surface tension/ln concentration curve; type: physicochemical; conditions: in distilled water
Procedure: as §1

Row | Compound | initial foam [2] [cm] | time to zero foam [2] [s] | solubility limit [3] | γ (0.1 wt % solution) (1 b/s) ([1]; 1 b/s) [Dyne/cm] | γ (0.1 wt % solution) (6 b/s) ([1]; 6 b/s) [Dyne/cm] | limiting γ (0.1 b/s) ([1]; 0.1 b/s) [Dyne/cm] | limiting γ (1 b/s) ([1]; 1 b/s) [Dyne/cm] | limiting γ (6 b/s) ([1]; 6 b/s) [Dyne/cm] | limiting γ (20 b/s) ([1]; 20 b/s) [Dyne/cm] | pC20 [1] | time to zero foam ([2]; unit not given) | also measured
1 | 9.5 mole ethoxylate of nonylphenol [reference compound] | 4.5 | >300 | – | – | – | – | – | – | – | – | – | Dynamic Surface Tension (0.1 b/s) ([1]; 0.1 wt % aqueous solution, 0.1 b/s): 33.2 dyne/cm; Dynamic Surface Tension (1 b/s) ([1]; 0.1 wt % aqueous solution, 1 b/s): 36.7 dyne/cm; Dynamic Surface Tension (6 b/s) ([1]; 0.1 wt % aqueous solution, 6 b/s): 44.3 dyne/cm; Dynamic Surface Tension (15 b/s) ([1]; 0.1 wt % aqueous solution, 15 b/s): 52.8 dyne/cm; Dynamic Surface Tension (20 b/s) ([1]; 0.1 wt % aqueous solution, 20 b/s): 56.2 dyne/cm
2 | CC(C)(C)COC(=O)C(O)C(O)C(=O)OCC(C)(C)C (racemic) (as salt: tartrate) [Example 8, Dineopentyl-DL-tartrate] | – | – | – | – | – | – | – | – | – | – | – | melting point: 75 °C
3 | CCCCOC(=O)C(O)C(O)C(=O)OCCCC (racemic) [Example 2, Dibutyl-L-tartrate] | – | – | 1.1 Weight % | – | – | – | – | – | – | – | – | –
4 | CC(C)COC(=O)C(O)C(O)C(=O)OCC(C)C (racemic) [Example 3, Diisobutyl-DL-tartrate] | 0.5 | 0.3 | 0.7 Weight % | 50.6 | 51.4 | 38.7 | 39.3 | 39.8 | 40.8 | 2.6 | – | –
5 | CCC(C)OC(=O)C(O)C(O)C(=O)OC(C)CC (racemic) [Example 4, Di-sec-butyl-DL-tartrate] | 1.7 | 0.4 | 1.7 Weight % | 52.2 | 53.2 | 35.1 | 35.0 | 35.0 | 36.0 | 2.5 | – | –
6 | CCCCCOC(=O)C(O)C(O)C(=O)OCCCCC (racemic) [Example 5, Dipentyl-DL-tartrate] | 0 | – | 0.1 Weight % | 36.8 | 37.8 | 35.9 | 36.8 | 37.8 | 41.6 | 3.3 | 0 | –
7 | CC(C)CCOC(=O)C(O)C(O)C(=O)OCCC(C)C (racemic) [Example 6, Diisoamyl-DL-tartrate] | 0 | – | 0.1 Weight % | 35.4 | 36.7 | 34.9 | 35.7 | 37.2 | 40.3 | 3.7 | 0 | decrease in the limiting surface tension ([1]; 20 b/s): 1.3 dyne/cm
8 | CCC(C)COC(=O)C(O)C(O)C(=O)OCC(C)CC (racemic) [Example 7, Di(2-methyl-butyl)-DL-tartrate] | 0 | – | 0.1 Weight % | 39.0 | 39.8 | 35.6 | 36.0 | 36.0 | 38.5 | 3.2 | 0 | –
9 | CC(C)(C)COC(=O)C(O)C(O)C(=O)OCC(C)(C)C (racemic) [Example 8, Dineopentyl-DL-tartrate] | 0 | – | 0.2 Weight % | 38.7 | 39.8 | 35.1 | 35.5 | 36.1 | 38.4 | 3.5 | 0 | decrease in the limiting surface tension ([1]; 20 b/s): 3.2 dyne/cm
10 | CCCCCCOC(=O)C(O)C(O)C(=O)OCCCCCC (racemic) [Example 9, Dihexyl-DL-tartrate] | 1.3 | 0.1 | 0.01 Weight % | 59.0 | 65.9 | 40.5 | 59.0 | 65.9 | 70.0 | 3.8 | – | –
11 | CC(C)CC(C)OC(=O)C(O)C(O)C(=O)OC(C)CC(C)C (racemic) [Example 10, Di(4-methyl-2-pentyl)-DL-tartrate] | 0.8 | 0.3 | 0.02 Weight % | 42.2 | 46.8 | 41.3 | 49.9 | 56.1 | 68.2 | 3.7 | – | –
12 | O=C(OCc1ccccc1)C(O)C(O)C(=O)OCc1ccccc1 (racemic) [Example 11, Dibenzyl-DL-tartrate] | 1.3 | 0.1 | 0.05 Weight % | 67.8 | 70.0 | 64.0 | 68.1 | 69.8 | 72.5 | 1.0 | – | –
13 | CCCCC(CC)COC(=O)C(O)C(O)C(=O)OCC(CC)CCCC (racemic) [Example 12, Di(2-ethylhexyl)-DL-tartrate] | 0 | – | 0.06 Weight % | 69.8 | 70.5 | 66.7 | 69.8 | 70.5 | 71.3 | 1.6 | 0 | limiting γ (0.1 b/s) at 5 wt. % ([1]; 5 wt. %, cloudy mixture, 0.1 b/s): 38.5 dyne/cm; limiting γ (1 b/s) at 5 wt. % ([1]; 5 wt. %, cloudy mixture, 1 b/s): 40.3 dyne/cm; limiting γ (6.0 b/s) at 5 wt. % ([1]; 5 wt. %, cloudy mixture, 6.0 b/s): 41.2 dyne/cm; limiting γ (20 b/s) at 5 wt. % ([1]; 5 wt. %, cloudy mixture, 20 b/s): 44.8 dyne/cm
14 | CC(C)OC(=O)C(O)C(O)C(=O)OC(C)C [Example 1, Diisopropyl-D-tartrate] | – | – | >5% Weight % | – | – | – | – | – | – | – | – | –

Source: patent US6423376B1, “Tartaric acid diesters as biodegradable surfactants” (Air Products and Chemicals, Inc., priority 2000, dated 2002)
